The text below walks through data of US11897883B1, “Pyrrolo[3,2-c][1,6]naphthyridine-2-carboxylic acid compounds as CK2 inhibitors” (KING FAISAL UNIVERSITY, priority 2023, dated 2024).

In assay [1] the test system is MIAPaCa-2 (pancreas). As to the kind of experiment: In vitro cytotoxic activity MTT assay, MIAPaCa-2. It is filed as cell-based. The following applies: Homo sapiens, MIA PaCa-2, 96 hours exposure, read-out: IC50, concentration eliciting a 50% inhibition of cell proliferation. On the procedure:
(§1) Compounds 1-16 were screened for their in vitro cytotoxic activity utilizing a 3-(4,5-dimethyl-thiazol-2-yl)-2,5-diphenyltetrazolium bromide (MTT) assay against selected cancer human cell lines consisting of PC3 (prostate), HCT116 (colon), A375 (melanoma), H1299 (lung), MIAPaCa-2 (pancreas), HL60 (leukemia), MCF7 (breast), MDA-MB-231 (breast) (T. Mosmann, J. Immunol. Meth., 1983, 65, 55-63). The cells were cultured at 37° C. in RMPI1640 medium supplemented with 10% fetal bovine serum, 50 IU/mL penicillin, and 50 μg/mL streptomycin in a 5% CO2 incubator. All cells were sub-cultured 3 times/week by trypsinisation. Viable cells were seeded and allowed to adhere for 12 h before a test drug was added in 96-well plates at an initial density of 1.0×10^5 cells/mL. Tumour cell lines were separately exposed to various concentrations of the tested compounds followed by incubation at a temperature of 37° C. during 96 h inside a medium of fresh RMPI 1640. Cells were subsequently incubated at 37° C. using MTT at 0.5 mg/mL during 4 h. After removal of supernatant, formazan crystals were dissolved in isopropanol and the optical density was measured at 570 nm. CX-4945 was used as a positive control.
Background: Formazan colour is commonly taken as a measure of viable cells.

Assay [2] has as its system HL60 (leukemia). As to the kind of experiment: In vitro cytotoxic activity MTT assay, HL60. The class given is cell-based. Particulars: Homo sapiens, HL-60, 96 hours exposure, read-out: IC50, concentration eliciting a 50% inhibition of cell proliferation. On the procedure: as §1
The test system of assay [3] is H1299 (lung). Briefly: In vitro cytotoxic activity MTT assay, H1299. It is filed as cell-based. Particulars: Homo sapiens, NCI-H1299, 96 hours exposure, read-out: IC50, concentration eliciting a 50% inhibition of cell proliferation. On the procedure: as §1
For assay [4], the system named is MDA-MB-231 (breast). As to the kind of experiment: In vitro cytotoxic activity MTT assay, MDA-MB-231. It is filed as cell-based. The following applies: Homo sapiens, 96 hours exposure, read-out: IC50, concentration eliciting a 50% inhibition of cell proliferation. As to the method:
as §1

Assay [5] deals with HCT116 (colon). As to the kind of experiment: In vitro cytotoxic activity MTT assay, HCT116. The class given is cell-based. The following applies: Homo sapiens, HCT-116, 96 hours exposure, read-out: IC50, concentration eliciting a 50% inhibition of cell proliferation. On the procedure:
as §1

For assay [6], the system named is MCF7 (breast). As to the kind of experiment: In vitro cytotoxic activity MTT assay, MCF7. It is filed as cell-based. The following applies: Homo sapiens, 96 hours exposure, read-out: IC50, concentration eliciting a 50% inhibition of cell proliferation. As to the method:
as §1

The test system of assay [7] is PC3 (prostate). As to the kind of experiment: In vitro cytotoxic activity MTT assay, PC3. The class given is cell-based. The following applies: Homo sapiens, 96 hours exposure, read-out: IC50, concentration eliciting a 50% inhibition of cell proliferation. On the procedure: as §1
The subject of assay [8] is A375 (melanoma). Briefly: In vitro cytotoxic activity MTT assay, A375. It is filed as cell-based. Particulars: Homo sapiens, A-375, 96 hours exposure, read-out: IC50, concentration eliciting a 50% inhibition of cell proliferation. On the procedure:
as §1

In assay [9] the target is T1, recombinant human CK2 (RRββ-holoenzyme) (Homo sapiens, UniProt P68400).
T1 construct: purchased Millipore
T1 sequence (P68400 whole entry): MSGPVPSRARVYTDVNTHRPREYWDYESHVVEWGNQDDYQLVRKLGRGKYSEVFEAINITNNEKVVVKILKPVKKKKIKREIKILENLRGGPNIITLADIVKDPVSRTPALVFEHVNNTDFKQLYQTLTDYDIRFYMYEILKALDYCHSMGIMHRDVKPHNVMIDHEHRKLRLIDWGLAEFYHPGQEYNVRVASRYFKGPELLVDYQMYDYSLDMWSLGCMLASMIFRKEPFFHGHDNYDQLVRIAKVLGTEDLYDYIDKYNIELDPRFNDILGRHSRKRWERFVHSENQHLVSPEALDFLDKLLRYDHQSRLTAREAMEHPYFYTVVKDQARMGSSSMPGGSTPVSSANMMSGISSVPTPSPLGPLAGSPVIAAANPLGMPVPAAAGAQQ
T1 sequence (P67870 whole entry partner): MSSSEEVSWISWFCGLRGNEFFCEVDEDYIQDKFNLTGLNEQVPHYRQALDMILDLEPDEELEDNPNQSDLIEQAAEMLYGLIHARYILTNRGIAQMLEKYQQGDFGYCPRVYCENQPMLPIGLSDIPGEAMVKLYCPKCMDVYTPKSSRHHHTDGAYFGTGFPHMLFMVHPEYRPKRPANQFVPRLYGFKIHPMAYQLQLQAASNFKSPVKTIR
As to the kind of experiment: CK2 Kinase Assay (33P-ATP, substrate peptide RRRDDDSDDD). The class given is biochemical. The following applies: final ATP 15 μM, 10 min at 30 °C; read-out: protein kinase CK2 IC50. On the procedure:
CK2 Kinase Assay was conducted using the protocol as described in Pierre F. et al.; J. Med. Chem. 2011, 54, 635-654. The tested compounds in aqueous solution were added at a volume of 10 μL to a reaction mixture comprising 10 μL of assay dilution buffer (ADB; 20 mM MOPS, pH 7.2, 25 mM β-glycerol phosphate, 5 mM EGTA, 1 mM sodium orthovanadate, and 1 mM dithiothreitol), 10 μL of substrate peptide (RRRDDDSDDD, dissolved in ADB at a concentration of 1mM), 10 μL of recombinant human CK2 (RRββ-holoenzyme, 25 ng dissolved in ADB; Millipore). Reactions were initiated by the addition of 10 μL of ATP solution (90% 75 mMMgCl2, 75 μM ATP (final ATP concentration:15 μM) dissolved in ADB; 10% [γ-33P] ATP (stock 1 mCi/100 μL; 3000 Ci/mmol (Perkin-Elmer) and maintained for 10 min at 30 ° C. The reactions were quenched with 100 μL of 0.75% phosphoric acid and then transferred to and filtered through a phosphor cellulose filter plate (Millipore). After washing each well five times with 0.75% phosphoric acid, the plate was dried under vacuum for 5 min and, following the addition of 15 μL of scintillation fluid to each well, the residual radioactivity was measured using a Wallac luminescence counter. The IC50 values were derived from eight concentrations of test inhibitors.

With `O=C(O)c1cc2c(Nc3cccc(Cl)c3)nc3ccncc3c2[nH]1` [Compound 1, 4-((3-chlorophenyl)amino)-1H-pyrrolo[3,2-c][1,6]naphthyridine-2-carboxylic acid], the IC50 in assay [1] amounted to 1100 nM; in assay [2] it was 2500 nM; in [3], 1400 nM; in assay [4], 3.7 µM; in [5], 1300 nM; in assay [6], 4.2 µM. Further, the IC50 came to 2100 nM in assay [7], 2900 nM in assay [8] and 26 nM in assay [9].
